Measurements published in patent US20250009742A1 (priority 2021, published 2025).
Read-outs that look alike come from different tables or passages of the source.

What was measured:
Protein = Protein (Hepatitis B virus genotype D subtype ayw, UniProt P03146); test: Protein inhibition rate / EC50 (Table 1, no method described); format: biochemical
intracellular HBV DNA = test: Real-time PCR for intracellular HBV DNA in HepAD38 cells; format: cell-based; conditions: 65 hours treatment
[1] = Cell viability assay (EZ-Cytox), cytotoxicity; format: cell-based; conditions: human, HepAD38 cells; for viability at 65 h, 100 µM: read-out: Cytotoxicity % Livability (@100 μM)
Method: HepAD38 cells were cultured for 2 days in Dulbecco's Modified Eagle's medium (Welgene, LM001-05) supplemented with 10% FBS without tetracycline. […] After 65 hours of treatment, viability was measured using EZ-Cytox cell viability assay kit (Daeil Lab Service) according to the manufacturer's instructions. The absorbance was measured at 450 nm using a spectrophotometer (Spark, Tecan).

[2] = Hepatitis B virus, HePAD38, 65 h

Sequence of Protein (P03146 whole entry): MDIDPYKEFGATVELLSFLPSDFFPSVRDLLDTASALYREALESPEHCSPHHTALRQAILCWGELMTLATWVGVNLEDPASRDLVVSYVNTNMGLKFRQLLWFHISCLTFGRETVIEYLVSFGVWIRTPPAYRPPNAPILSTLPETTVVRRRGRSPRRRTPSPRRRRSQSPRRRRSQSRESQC

## COc1ccc(N(Cc2cc(C)nn2C)C(=O)Nc2ccc(F)c(Cl)c2)cc1 [Example 108, 3-(3-chloro-4-fluorophenyl)-1-((1,3-dimethyl-1H-pyrazol-5-yl)methyl)-1-(4-methoxyphenyl)urea]
Protein
  EC50: 5300 nM
  inhibition at 30 µM: 89.9%
Intracellular HBV DNA; [2]
  IC50: 360 nM

## COc1ccc(N(Cc2cn(C)nc2C)C(=O)Nc2ccc(F)c(Cl)c2)cc1 [Example 159, 3-(3-chloro-4-fluorophenyl)-1-((1,3-dimethyl-1H-pyrazol-4-yl)methyl)-1-(4-methoxyphenyl)urea]
Protein
  inhibition at 30 µM: 4%
Intracellular HBV DNA; [2]
  IC50: > 3300 nM

## O=C(Nc1cc(F)c(F)c(F)c1)c1ccc(F)c(S(=O)(=O)N2CCC(O)CC2)c1 [NVR, reference compound]
Protein
  EC50: 3600 nM
Intracellular HBV DNA; read-out: IC50
  IC50: 340 nM

## COc1cc(N(Cc2cc(C(F)(F)F)[nH]n2)C(=O)Nc2ccc(F)c(Cl)c2)cnn1 [Example 94, 3-(3-chloro-4-fluorophenyl)-1-(6-methoxypyridazin-4-yl)-1-((5-(trifluoromethyl)-1H-pyrazol-3-yl)methyl)urea]
[1]
  CC50 at 65 h: 64400 nM
  viability at 65 h, 100 µM: 4.8%
Intracellular HBV DNA; [2]
  IC50: 260 nM

## COc1cncc(N(Cc2cc(C(F)F)[nH]n2)C(=O)Nc2ccc(F)c(Cl)c2)c1 [Example 77, 3-(3-chloro-4-fluorophenyl)-1-((5-(difluoromethyl)-1H-pyrazol-3-yl)methyl)-1-(5-methoxypyridin-3-yl)urea]
[1]
  CC50 at 65 h: > 100000 nM
  viability at 65 h, 100 µM: 86.7%
Intracellular HBV DNA; [2]
  IC50: 36 nM

## Cc1cc(N(Cc2n[nH]c3c2CCCO3)C(=O)Nc2ccc(F)c(Cl)c2)no1 [Example 26, 3-(3-chloro-4-fluorophenyl)-1-(5-methylisoxazol-3-yl)-1-((1,4,5,6-tetrahydropyrano[2,3-c]pyrazol-3-yl)methyl)urea]
[1]
  CC50 at 65 h: > 100000 nM
  viability at 65 h, 100 µM: 93%
Intracellular HBV DNA; [2]
  IC50: > 1100 nM

## COc1ncc(N(Cc2cc(C(F)(F)F)[nH]n2)C(=O)Nc2cc(F)c(F)c(C#N)n2)cn1 [Example 151, 3-(6-cyano-4,5-difluoropyridin-2-yl)-1-(2-methoxypyrimidin-5-yl)-1-((5-(trifluoromethyl)-1H-pyrazol-3-yl)methyl)urea]
[1]
  CC50 at 65 h: > 100000 nM
  viability at 65 h, 100 µM: 87.4%
Intracellular HBV DNA; [2]
  IC50: > 1100 nM

## COc1ncc(N(Cc2cc(C(F)(F)F)[nH]n2)C(=O)Nc2nccc(-n3ccnc3)c2F)cn1 [Example 3, 3-(3-fluoro-4-(1H-imidazol-1-yl)pyridin-2-yl)-1-(2-methoxypyrimidin-5-yl)-1-((5-(trifluoromethyl)-1H-pyrazol-3-yl)methyl)urea]
[1]
  CC50 at 65 h: > 100000 nM
  viability at 65 h, 100 µM: 74.2%
Intracellular HBV DNA; [2]
  IC50: > 1100 nM

## CCOC=Cc1c(CN(C(=O)Nc2ccc(F)c(Cl)c2)c2ccc(OC)nc2)n[nH]c1C(F)(F)F [Example 83, 3-(3-chloro-4-fluorophenyl)-1-((4-(2-ethoxyvinyl)-5-(trifluoromethyl)-1H-pyrazol-3-yl)methyl)-1-(6-methoxypyridin-3-yl)urea]
[1]
  CC50 at 65 h: > 100000 nM
  viability at 65 h, 100 µM: 95.1%
Intracellular HBV DNA; [2]
  IC50: > 1100 nM

## CS(=O)(=O)Nc1ccc(N(Cc2n[nH]c3c2CCOC3)C(=O)Nc2ccc(F)c(Cl)c2)cc1 [Example 16, N-(4-(3-(3-chloro-4-fluorophenyl)-1-((1,4,5,7-tetrahydropyrano[3,4-c]pyrazol-3-yl)methyl)ureido)phenyl)methanesulfonamide]
[1]
  CC50 at 65 h: 97600 nM
Intracellular HBV DNA; [2]
  IC50: > 1100 nM

## COc1ncc(N(Cc2cc(C(F)(F)F)[nH]n2)C(=O)Nc2cncc(C(F)F)c2)cn1 [Example 174, 3-(5-(difluoromethyl)pyridin-3-yl)-1-(2-methoxypyrimidin-5-yl)-1-((5-(trifluoromethyl)-1H-pyrazol-3-yl)methyl)urea]
[1]
  CC50 at 65 h: > 100000 nM
  viability at 65 h, 100 µM: 96.2%
Intracellular HBV DNA; [2]
  IC50: 480 nM

## COc1ncc(N(Cc2cc(C(F)(F)F)[nH]n2)C(=O)Nc2cc(C)c(F)c(Cl)n2)cn1 [Example 142, 3-(6-chloro-5-fluoro-4-methylpyridin-2-yl)-1-(2-methoxypyrimidin-5-yl)-1-((5-(trifluoromethyl)-1H-pyrazol-3-yl)methyl)urea]
[1]
  CC50 at 65 h: 46900 nM
  viability at 65 h, 100 µM: 21%
Intracellular HBV DNA; [2]
  IC50: 100 nM

## COc1ncc(N(Cc2cc(C(F)F)[nH]n2)C(=O)Nc2ccc(F)c(C#N)c2)cn1 [Example 155, 3-(3-cyano-4-fluorophenyl)-1-((5-(difluoromethyl)-1H-pyrazol-3-yl)methyl)-1-(2-methoxypyrimidin-5-yl)urea]
[1]
  CC50 at 65 h: > 100000 nM
  viability at 65 h, 100 µM: 97%
Intracellular HBV DNA; [2]
  IC50: 35 nM

## COC12CC(N(Cc3cc(C(F)(F)F)[nH]n3)C(=O)Nc3ccc(F)c(Cl)c3)(C1)C2 [Example 105, 3-(3-chloro-4-fluorophenyl)-1-(3-methoxybicyclo[1.1.1]pentan-1-yl)-1-((5-(trifluoromethyl)-1H-pyrazol-3-yl)methyl)urea]
[1]
  CC50 at 65 h: 55800 nM
  viability at 65 h, 100 µM: 3.5%
Intracellular HBV DNA; [2]
  IC50: 34 nM

## COc1ncc(N(Cc2n[nH]c(C(F)(F)F)c2C(C)(C)O)C(=O)Nc2ccc(F)c(Cl)c2)cn1 [Example 102, 3-(3-chloro-4-fluorophenyl)-1-((4-(2-hydroxypropan-2-yl)-5-(trifluoromethyl)-1H-pyrazol-3-yl)methyl)-1-(2-methoxypyrimidin-5-yl)urea]
[1]
  CC50 at 65 h: > 66000 nM
  viability at 65 h, 100 µM: 3.8%
Intracellular HBV DNA; [2]
  IC50: > 1100 nM

## N#Cc1cncc(N(Cc2n[nH]c3c2CCCO3)C(=O)Nc2ccc(F)c(Cl)c2)c1 [Example 120, 3-(3-chloro-4-fluorophenyl)-1-(5-cyanopyridin-3-yl)-1-((1,4,5,6-tetrahydropyrano[2,3-c]pyrazol-3-yl)methyl)urea]
[1]
  CC50 at 65 h: > 100000 nM
  viability at 65 h, 100 µM: 92%
Intracellular HBV DNA; [2]
  IC50: 95 nM

## COc1ncc(N(Cc2cc(C(F)(F)F)[nH]n2)C(=O)Nc2ccc(F)c(C(F)F)c2)cn1 [Example 189, 3-(3-(difluoromethyl)-4-fluorophenyl)-1-(2-methoxypyrimidin-5-yl)-1-((5-(trifluoromethyl)-1H-pyrazol-3-yl)methyl)urea]
[1]
  CC50 at 65 h: > 100000 nM
  viability at 65 h, 100 µM: 58%
Intracellular HBV DNA; [2]
  IC50: 6.5 nM

## COC12CC(N(Cc3cc(C(F)(F)F)[nH]n3)C(=O)Nc3cc(F)c(F)c(F)c3)(C1)C2 [Example 222, 1-(3-methoxybicyclo[1.1.1]pentan-1-yl)-1-((5-(trifluoromethyl)-1H-pyrazol-3-yl)methyl)-3-(3,4,5-trifluorophenyl)urea]
[1]
  CC50 at 65 h: 31700 nM
  viability at 65 h, 100 µM: 2.5%
Intracellular HBV DNA; [2]
  IC50: 120 nM

## COC12CC(N(Cc3cc(C(F)(F)F)[nH]n3)C(=O)Nc3ccc(F)c(C(F)F)c3)(C1)C2 [Example 213, 3-(3-(difluoromethyl)-4-fluorophenyl)-1-(3-methoxybicyclo[1.1.1]pentan-1-yl)-1-((5-(trifluoromethyl)-1H-pyrazol-3-yl)methyl)urea]
[1]
  CC50 at 65 h: > 100000 nM
  viability at 65 h, 100 µM: 63.1%
Intracellular HBV DNA; [2]
  IC50: 16 nM

## Cn1ccc(N(Cc2n[nH]c3c2CCCO3)C(=O)Nc2ccc(F)c(Cl)c2)n1 [Example 25, 3-(3-chloro-4-fluorophenyl)-1-(1-methyl-1H-pyrazol-3-yl)-1-((1,4,5,6-tetrahydropyrano[2,3-c]pyrazol-3-yl)methyl)urea]
[1]
  CC50 at 65 h: > 100000 nM
  viability at 65 h, 100 µM: 100%
Intracellular HBV DNA; [2]
  IC50: > 1100 nM

## COc1ccc(N(Cc2nn(CCOC3CCCCO3)c3c2CCC3)C(=O)Nc2ccc(F)c(Cl)c2)cn1 (stereo not shown) [Example 66, 3-(3-chloro-4-fluorophenyl)-1-(6-methoxypyridin-3-yl)-1-((1-(2-(tetrahydro-2H-pyran-2-yloxy)ethyl)-1,4,5,6-tetrahydrocyclopenta[c]pyrazol-3-yl)methyl)urea]
[1]
  CC50 at 65 h: 81900 nM
Intracellular HBV DNA; [2]
  IC50: > 300 nM

## COC12CC(N(Cc3cc(C(F)(F)F)[nH]n3)C(=O)Nc3ccc(F)c(C(F)F)n3)(C1)C2 [Example 214, 3-(6-(difluoromethyl)-5-fluoropyridin-2-yl)-1-(3-methoxybicyclo[1.1.1]pentan-1-yl)-1-((5-(trifluoromethyl)-1H-pyrazol-3-yl)methyl)urea]
[1]
  CC50 at 65 h: > 100000 nM
  viability at 65 h, 100 µM: 76.8%
Intracellular HBV DNA; [2]
  IC50: 220 nM

## Cn1cc(N(Cc2n[nH]c3c2CCCC3)C(=O)Nc2ccc(F)c(Cl)c2)cn1 [Example 24, 3-(3-chloro-4-fluorophenyl)-1-(1-methyl-1H-pyrazol-4-yl)-1-((4,5,6,7-tetrahydro-1H-indazol-3-yl)methyl)urea]
[1]
  CC50 at 65 h: > 100000 nM
  viability at 65 h, 100 µM: 53.4%
Intracellular HBV DNA; [2]
  IC50: 160 nM

## COc1cc(C)c(N(Cc2cc(C(F)(F)F)[nH]n2)C(=O)Nc2ccc(F)c(Cl)c2)c(C)c1 [Example 29, 3-(3-chloro-4-fluorophenyl)-1-(4-methoxy-2,6-dimethylphenyl)-1-((5-(trifluoromethyl)-1H-pyrazol-3-yl)methyl)urea]
[1]
  CC50 at 65 h: 12200 nM
  viability at 65 h, 100 µM: 6.9%
Intracellular HBV DNA; [2]
  IC50: > 1100 nM

## CC(C)(O)c1cc(N(Cc2n[nH]c3c2CCCO3)C(=O)Nc2ccc(F)c(Cl)c2)on1 [Example 109, 3-(3-chloro-4-fluorophenyl)-1-(3-(2-hydroxypropan-2-yl)isoxazol-5-yl)-1-((1,4,5,6-tetrahydropyrano[2,3-c]pyrazol-3-yl)methyl)urea]
[1]
  CC50 at 65 h: > 100000 nM
  viability at 65 h, 100 µM: 82%
Intracellular HBV DNA; [2]
  IC50: 150 nM

## CC(=O)c1ccc(N(Cc2n[nH]c3c2CCCO3)C(=O)Nc2ccc(F)c(Cl)c2)cn1 [Example 20, 1-(6-acetylpyridin-3-yl)-3-(3-chloro-4-fluorophenyl)-1-((1,4,5,6-tetrahydropyrano[2,3-c]pyrazol-3-yl)methyl)urea]
[1]
  CC50 at 65 h: > 100000 nM
Intracellular HBV DNA; [2]
  IC50: > 1100 nM

## N#Cc1cncc(N(Cc2n[nH]c3c2COCC3)C(=O)Nc2ccc(F)c(Cl)c2)c1 [Example 129, 3-(3-chloro-4-fluorophenyl)-1-(5-cyanopyridin-3-yl)-1-((1,4,6,7-tetrahydropyrano[4,3-c]pyrazol-3-yl)methyl)urea]
[1]
  CC50 at 65 h: > 100000 nM
  viability at 65 h, 100 µM: 93.1%
Intracellular HBV DNA; [2]
  IC50: 60 nM
